Literature values, collected in Sander's compilation of Henry's law constants.
Values joined by “and” are separate entries in the source; they are usually repeats but may differ in a detail not shown here. Equal entries are not always repeated. Each block holds one compound with its values, some of them ahead of it.

Experiment: Henry solubility constant Hcp at 298.15 K (mol/(m3 Pa))
Settings: cited value
[1] = reference: Barcelo and Hennion (1997)
[2] = reference: Sander et al. (2011)
[3] = reference: Fogg and Sangster (2003)
[4] = reference: Burkholder et al. (2015)
[5] = reference: Burkholder et al. (2019)
[6] = reference: Sander et al. (2006)
[7] = reference: Mackay et al. (1995)

Structure (SMILES): O=C1c2ccccc2C(=O)N1SC(Cl)(Cl)Cl [folpet]
Henry solubility constant Hcp [1]: 0.026

Structure (SMILES): O=CC(=O)O [oxoethanoic acid]
Henry solubility constant Hcp [2]: 110

Structure (SMILES): CCOP(=S)(OCC)Oc1ccc([N+](=O)[O-])cc1 [parathion]
Henry solubility constant Hcp [1]: 0.8
Henry solubility constant Hcp (reference: MacBean (2012b)): 33

Henry solubility constant Hcp (reference: Brockbank (2013)): 0.052
Structure (SMILES): CCC/C=C(/C=O)CC [2-ethyl-2-hexenal]

Henry solubility constant Hcp (reference: Brockbank (2013)): 1.3e-06
Structure (SMILES): CCCCCCCCCC [decane]

Structure (SMILES): CCCC[N+](=O)[O-] [1-nitrobutane]
Henry solubility constant Hcp (reference: Brockbank (2013)): 0.076

Structure (SMILES): COP(=S)(OC)SCN1C(=O)c2ccccc2C1=O [phosmet]
Henry solubility constant Hcp [1]: 10

Henry solubility constant Hcp (reference: Brockbank (2013)): 0.0016
Henry solubility constant Hcp [3]: 0.0017
Structure (SMILES): Cc1ccc(C)c(C)c1 [1,2,4-trimethylbenzene]

Structure (SMILES): OO [hydrogen peroxide]
Henry solubility constant Hcp (reference: Brockbank (2013)): 950
Henry solubility constant Hcp [4]: 860
Henry solubility constant Hcp [5]: 860
Henry solubility constant Hcp [3]: 980
Henry solubility constant Hcp [6]: 760
Henry solubility constant Hcp [2]: 830

Henry solubility constant Hcp (reference: Brockbank (2013)): 9.3e-09
Structure (SMILES): FC(F)(F)C(F)(F)C(F)(F)C(F)(F)C(F)(F)C(F)(F)F [tetradecafluorohexane]

Structure (SMILES): CCSSCC [diethyl disulfide]
Henry solubility constant Hcp [4]: 0.0037
Henry solubility constant Hcp [5]: 0.0037

Structure (SMILES): CCCOC=O [propyl methanoate]
Henry solubility constant Hcp (reference: Brockbank (2013)): 0.031
Henry solubility constant Hcp [4]: 0.026
Henry solubility constant Hcp [5]: 0.026
Henry solubility constant Hcp [2]: 0.026

Structure (SMILES): Cc1ccccc1 [methylbenzene]
Henry solubility constant Hcp (reference: Brockbank (2013)): 0.0019
Henry solubility constant Hcp (reference: Goldstein (1982)): 0.0015
Henry solubility constant Hcp (reference: McAuliffe (1971)): 0.0015

Structure (SMILES): CC(O)C(C)O (stereo not drawn) [2,3-butanediol]
Henry solubility constant Hcp [4]: 1100
Henry solubility constant Hcp [5]: 1100

Henry solubility constant Hcp (reference: Brockbank (2013)): 0.11
Henry solubility constant Hcp (reference: Howard (1993)): 0.1
Structure (SMILES): CCCCC(C)=O [2-hexanone]

Structure (SMILES): CCOP(=S)(OCC)Oc1nc(Cl)c(Cl)cc1Cl [chlorpyrifos]
Henry solubility constant Hcp [1]: 0.0056
Henry solubility constant Hcp (reference: HSDB (2015)): 3.4
Henry solubility constant Hcp (reference: Muir et al. (2004)): 1.8 and 2.1

Henry solubility constant Hcp (reference: Brockbank (2013)): 0.28
Structure (SMILES): CCCCCCCN [1-heptanamine]

Structure (SMILES): CCCCN(CC)C(=O)SCCC [pebulate]
Henry solubility constant Hcp [1]: 0.00084

Structure (SMILES): CN(C)N=O [N-nitrosodimethylamine]
Henry solubility constant Hcp [4]: 3.9
Henry solubility constant Hcp [5]: 3.9
Henry solubility constant Hcp [7]: 0.3

Henry solubility constant Hcp (reference: Brockbank (2013)): 0.021
Henry solubility constant Hcp (reference: Goldstein (1982)): 0.024
Henry solubility constant Hcp (reference: Meynier et al. (2003)): 0.017
Structure (SMILES): CC(=O)OCCC(C)C [3-methylbutyl ethanoate]

Structure (SMILES): CCNc1nc(Cl)nc(NCC)n1 [simazine]
Henry solubility constant Hcp [1]: 29

Structure (SMILES): CC#N [ethanenitrile]
Henry solubility constant Hcp (reference: Arijs and Brasseur (1986)): 0.47
Henry solubility constant Hcp (reference: Brockbank (2013)): 0.49
Henry solubility constant Hcp [4]: 0.52
Henry solubility constant Hcp [5]: 0.52
Henry solubility constant Hcp [3]: 0.5
Henry solubility constant Hcp (reference: Gaffney and Senum (1984)): 0.29
Henry solubility constant Hcp (reference: Hine and Weimar (1965)): 0.29
Henry solubility constant Hcp (reference: Plyasunov et al. (2006)): 0.38
Henry solubility constant Hcp [6]: 0.52
Henry solubility constant Hcp [2]: 0.52

Henry solubility constant Hcp [3]: 0.00054
Structure (SMILES): C=COCC(F)(F)F [(2,2,2-trifluoroethoxy)-ethene]

Structure (SMILES): c1ccc2c(c1)cc1ccc3cccc4ccc2c1c34 [benzo[a]pyrene]
Henry solubility constant Hcp (reference: Brockbank (2013)): 4.5
Henry solubility constant Hcp (reference: Goldstein (1982)): 0.0016

Henry solubility constant Hcp (reference: Brockbank (2013)): 0.34
Henry solubility constant Hcp [3]: 0.23
Henry solubility constant Hcp (reference: Goldstein (1982)): 0.093
Henry solubility constant Hcp (reference: McCarty (1980)): 0.076
Structure (SMILES): c1ccc2c(c1)ccc1ccccc12 [phenanthrene]

Structure (SMILES): CC(C)NC(=O)N1CC(=O)N(c2cc(Cl)cc(Cl)c2)C1=O [iprodione]
Henry solubility constant Hcp [1]: 710

Structure (SMILES): Clc1ccc2ccccc2c1 [2-chloronaphthalene]
Henry solubility constant Hcp (reference: Goldstein (1982)): 0.016

Structure (SMILES): O=[N+]([O-])c1ccccc1 [nitrobenzene]
Henry solubility constant Hcp (reference: Brockbank (2013)): 0.47
Henry solubility constant Hcp (reference: Goldstein (1982)): 0.47
Henry solubility constant Hcp [7]: 0.75

Henry solubility constant Hcp (reference: Brockbank (2013)): 0.0097
Structure (SMILES): CCC(C)(C)OC [2-methoxy-2-methylbutane]

Henry solubility constant Hcp [1]: 36
Structure (SMILES): CN(C)C(=O)Nc1ccccc1 [fenuron]

Structure (SMILES): CCC(C)n1c(=O)[nH]c(C)c(Br)c1=O (stereo not drawn) [bromacil]
Henry solubility constant Hcp [1]: 5.2

Structure (SMILES): FOF [difluorine monoxide]
Henry solubility constant Hcp (reference: Schäfer and Lax (1962)): 2.9e-05

Structure (SMILES): CCc1ccccc1N [2-ethylaniline]
Henry solubility constant Hcp (reference: Brockbank (2013)): 2.6

Structure (SMILES): ClCCCCCCl [1,5-dichloropentane]
Henry solubility constant Hcp (reference: Brockbank (2013)): 0.01

Structure (SMILES): CCCC(C)=O [2-pentanone]
Henry solubility constant Hcp (reference: Brockbank (2013)): 0.13
Henry solubility constant Hcp [7]: 0.17

Structure (SMILES): C=CCC#N [3-butenenitrile]
Henry solubility constant Hcp (reference: Brockbank (2013)): 0.2
